“Also recorded” adds a separate entry of the source. Marks after values point to notes of the source that are not given here.
Tests used:
[1] = test system: eosinophil infiltration of conjunctiva; experiment: Allergic conjunctivitis to ragweed in guinea pig: histology, eosinophil count in conjunctiva; type: in vivo, Hartley female guinea pig; conditions: for Anti-inflammatory activity, overall conclusion in words: allergic conjunctivitis model in guinea pig, summary of Example 2; for Statistical evaluation of eosinophil count (Mann-Whitney test), P compared to Dexamethasone / Statistical evaluation of eosinophil count (Mann-Whitney test), P compared to Livostine / Statistical evaluation of eosinophil count (Mann-Whitney test), P compared to No treatment group: eosinophils in three fields of conjunctiva (×400), 12 eyes per group, eye drops
Procedure: The peptides of the present invention were analyzed in experimental model of allergic conjunctivitis to ragweed (giant ragweed; Ambrosia trifida) in guinea pig. Hartley strain of guinea pig was selected according to previous reports of conjunctival anaphylaxis (Calonge M., et al., Acta Ophthalmol 68; 470–476, 1990) and females were chosen based on the sex dimorphism of ocular mucosal immunity with the protective role of male hormones (Saruya S., et al., Act Soc Ophthalmol Jap 72; 833–845, 1968). The conjunctival redness and edema are main signs of seasonal allergic conjunctivitis and eosionphil infiltration is the hallmark of the conjunctival histology in patients with allergic conjunctivitis (Abelson M B., et al., Arch Ophthalmol. 101; 555–556, 1983; Butrus S I., et al., Int. Ophthalmol. Clin. 28; 324–328, 1988)
86 Hartley female guinea pigs, 200–250 g were housed in the animal facilities of the Asan Institute for Life Sciences (Korea), given guinea pig chow and water ad libitum, and cared for in accordance with the Declaration of Helsinki and the National Institute of Health Guide to the Care and Use of the Laboratory Animals (Korea).
On day 15, immunized guinea pigs were divided 14 groups, 6 for each group. 11 anti-inflammatory peptides including new recombinants, dexamethasone eye drop (Maxidex, 0.1% dexamethasone, Alcon) and anti-histamine eye drop (Livostin, levocabastine, Janssen) were used for 13 groups, and no treatment for one group. Normal controls were employed as 6 non-immunized and non-treated guinea pigs. […] All the procedures were followed experimental model of allergic conjunctivitis described by Merayo-Lloves et al (Experimental model of allergic conjunctivitis to ragweed in guinea pig. Curr. Eye Res. 14; 487–494, 1995).
Anti-inflammatory peptides were resolved in sterile saline (100 μmol/40 μl concentration). All peptides and dexamethasone eye solutions were challenged 3 hour prior to the last pollen application on day 15, 10 minutes after pollen application, and 4 times thereafter at the 3 hour interval.
The orbits were excentrated after the animals were killed with CO2 asphyxia, and specimens were prepared for light microscopic examination. Sectioned specimens were stained with hematoxylin-eosin.
Eosinophils in the standardized fields of conjunctival epithelium, the immediate subepithelial, and the stroma were counted in three non-consecutive fields (magnification ×400) for each treatment in each experiment (12 eyes in each group).

PLA2 activated by TGase = target: T1, PLA2 activated by TGase (Cavia cutleri, UniProt P08587); experiment: Inhibitory effect of synthetic peptides on PLA2 activated by TGase in vitro; type: biochemical, Bovine; conditions: peptides 1×10^−8 M, preincubated with 0.001 Unit TGase 15 min at 37° C.
T1 construct: pre-incubated with 0.001 Unit TGase (Guinea pig liver, Sigma); purchased Sigma
T1 sequence (P08587 2-690 limits assumed): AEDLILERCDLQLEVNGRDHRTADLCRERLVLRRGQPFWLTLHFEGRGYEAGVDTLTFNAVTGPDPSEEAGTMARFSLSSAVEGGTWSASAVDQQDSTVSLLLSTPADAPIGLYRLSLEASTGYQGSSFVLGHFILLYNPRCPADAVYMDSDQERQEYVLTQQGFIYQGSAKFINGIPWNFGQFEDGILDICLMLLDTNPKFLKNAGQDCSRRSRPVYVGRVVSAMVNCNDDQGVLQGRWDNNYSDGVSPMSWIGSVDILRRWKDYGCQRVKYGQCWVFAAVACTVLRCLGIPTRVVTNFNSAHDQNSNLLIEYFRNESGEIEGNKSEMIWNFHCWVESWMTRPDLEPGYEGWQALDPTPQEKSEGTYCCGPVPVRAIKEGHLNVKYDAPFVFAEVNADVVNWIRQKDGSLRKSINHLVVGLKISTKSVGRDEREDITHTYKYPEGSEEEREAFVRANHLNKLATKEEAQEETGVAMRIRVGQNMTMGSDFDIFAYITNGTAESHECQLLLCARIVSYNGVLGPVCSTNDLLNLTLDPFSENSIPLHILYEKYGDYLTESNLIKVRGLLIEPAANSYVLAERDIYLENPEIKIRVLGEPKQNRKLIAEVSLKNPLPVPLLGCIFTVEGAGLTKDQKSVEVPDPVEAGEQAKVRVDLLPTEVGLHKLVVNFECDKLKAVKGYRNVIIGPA
Procedure: A series of synthetic peptides (1×10^−8 M) were pre-incubated with 0.001 Unit TGase (Guinea pig liver, Sigma) in […] of assay buffer (75 mM Tris-Cl, pH 9.0, 5 mM CaCl2, 1 mg/ml fatty acid free bovine serum albumin) for 15 min at 37° C. We employed a negative control as assay buffer without TGase, and a positive control as TGase without peptides. After pre-incubation, […] of 1-acyl-2-[1-^14C] arachidonic acid-glycerophospho -ethanolamine (about 2×10^5 dpm) was added in pre-incubated mixture, and incubated for 1 hr at 37° C. The reaction was terminated by adding 0.75 ml of Dole's reagent, and followed the same procedure described as above.
For inhibitory test of the peptides given, each value is the mean of data from three separate experiments (S.D.<10%). The increased PLA2 activity by TGase was determined as 100% that was 11.22 pmole arachidonyl/hr. % Inhibition was shown in FIG. 3.

Sequence	Anti-inflammatory activity, overall conclusion in words ([1]; listed as SEQ ID NO:2)	Statistical evaluation of eosinophil count (Mann-Whitney test), P compared to Dexamethasone [1]	Statistical evaluation of eosinophil count (Mann-Whitney test), P compared to Livostine [1]	Statistical evaluation of eosinophil count (Mann-Whitney test), P compared to No treatment group [1]	Histological signs (eosinophil infiltration), result in words ([1]; n=12, P<0.01, SD<10%, Mann-Whitney test, listed as SEQ ID NO:2)	PLA2 activity activated by TGase (FIG. 3), result in words (PLA2 activated by TGase)	Anti-inflammatory activity, overall conclusion in words [1]
KVLDGQDP [Peptide R2, synthetic peptide of the invention]	excellent anti-inflammatory activity in comparison with other known peptide sequences; also recorded: much higher activity than the steroidal anti-inflammatory dexamethasone	0.001*	0.002*	0.000	statistically significant difference from other groups; also recorded: the most effective	significantly reduced	–
KVLDPVKG [Peptide R1, synthetic peptide of the invention]	–	0.001	0.002	0.002	–	significantly reduced	excellent anti-inflammatory activity in comparison with other known peptide sequences

Reference: patent US7037502B2, “Peptide with the amino acid sequence of KVLDGQDP having anti-inflammatory properties” (priority 2001, dated 2006)
